Data taken from ChEMBL document CHEMBL4038274, “Design, synthesis and biological evaluation of multifunctional tacrine-curcumin hybrids as new cholinesterase inhibitors with metal ions-chelating and neuroprotective property” (Bioorg Med Chem, 2017).
Activity calls are given as the source filed them. The rule behind the calls is not given here.

Key:
Acetylcholinesterase = Acetylcholinesterase (Torpedo californica, UniProt P04058)
Description: Inhibition of Torpedo californica AChE using acetylthiocholine iodide as substrate preincubated for 5 mins followed by substrate addition measured at 1 min interval for 3 mins by Ellman's method

Cholinesterase = Cholinesterase (Equus caballus, UniProt P81908)
Description: Inhibition of equine serum BuChE using butyrylthiocholine iodide as substrate preincubated for 5 mins followed by substrate addition measured at 1 min interval for 3 mins by Ellmans method

PC-12 [1] = experiment: Neuroprotective activity against H202-induced toxicity in rat PC12 cells assessed as increase in cell viability after 24 hrs by MTT assay; type: functional, cell-based
PC-12 [2] = experiment: Neuroprotective activity against Abeta42-induced toxicity in rat PC12 cells assessed as increase in cell viability after 24 hrs by MTT assay; type: functional, cell-based
[3] = Metal chelating activity assessed as compound-Fe2+ complex formation at 25 uM after 30 mins by UV-spectrophotometric analysis; type: functional
[4] = Metal chelating activity assessed as compound-Cu2+ complex formation at 25 uM after 30 mins by UV spectrophotometric analysis; type: functional
PC-12 [5] = experiment: Cytotoxicity against rat PC12 cells at 0.1 to 10 uM after 24 hrs by MTT assay; type: cell-based; conditions: pc-12, 24 h
PC-12 [6] = experiment: Neuroprotective activity against H202-induced toxicity in rat PC12 cells assessed as increase in cell viability at 0.1 to 10 uM after 24 hrs by MTT assay; type: functional, cell-based
PC-12 [7] = experiment: Neuroprotective activity against Abeta42-induced toxicity in rat PC12 cells assessed as increase in cell viability at 0.1 to 10 uM after 24 hrs by MTT assay; type: functional, cell-based

Acetylcholinesterase, sequence (P04058 whole entry): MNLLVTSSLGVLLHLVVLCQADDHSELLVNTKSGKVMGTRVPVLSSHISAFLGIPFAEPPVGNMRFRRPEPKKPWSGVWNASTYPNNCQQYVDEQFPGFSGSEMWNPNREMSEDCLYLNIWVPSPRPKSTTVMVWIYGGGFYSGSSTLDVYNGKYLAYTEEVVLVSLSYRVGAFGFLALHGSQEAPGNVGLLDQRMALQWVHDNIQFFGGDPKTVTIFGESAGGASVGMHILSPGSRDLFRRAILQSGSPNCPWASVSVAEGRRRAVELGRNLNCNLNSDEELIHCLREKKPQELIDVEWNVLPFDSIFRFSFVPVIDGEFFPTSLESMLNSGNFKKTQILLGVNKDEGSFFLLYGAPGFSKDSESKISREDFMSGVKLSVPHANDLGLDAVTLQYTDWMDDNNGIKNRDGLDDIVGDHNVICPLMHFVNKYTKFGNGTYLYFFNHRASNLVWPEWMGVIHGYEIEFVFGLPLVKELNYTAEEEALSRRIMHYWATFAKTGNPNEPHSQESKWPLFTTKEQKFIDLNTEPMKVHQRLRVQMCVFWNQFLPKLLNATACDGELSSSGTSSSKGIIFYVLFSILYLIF
Cholinesterase, sequence (P81908 whole entry): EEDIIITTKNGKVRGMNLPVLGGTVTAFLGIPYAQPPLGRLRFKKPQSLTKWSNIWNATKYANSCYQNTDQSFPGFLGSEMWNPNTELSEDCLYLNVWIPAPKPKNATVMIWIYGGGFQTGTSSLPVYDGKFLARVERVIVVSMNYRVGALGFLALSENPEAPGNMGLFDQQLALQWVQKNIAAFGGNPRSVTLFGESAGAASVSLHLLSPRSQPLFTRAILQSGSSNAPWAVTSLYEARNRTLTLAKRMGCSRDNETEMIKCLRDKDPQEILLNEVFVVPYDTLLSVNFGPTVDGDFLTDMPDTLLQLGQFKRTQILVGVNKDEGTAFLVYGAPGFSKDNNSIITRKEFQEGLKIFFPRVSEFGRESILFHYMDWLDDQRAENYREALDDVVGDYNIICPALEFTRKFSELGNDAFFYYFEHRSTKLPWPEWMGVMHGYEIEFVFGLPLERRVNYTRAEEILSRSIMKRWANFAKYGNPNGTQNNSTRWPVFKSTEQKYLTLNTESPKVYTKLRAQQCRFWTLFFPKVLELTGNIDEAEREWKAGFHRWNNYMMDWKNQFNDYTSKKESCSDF

CC(=O)/C(=C\c1ccc(O)cc1)C(=O)NCCCCCCNc1c2c(nc3ccccc13)CCCC2
IC50 (Acetylcholinesterase): 2950 nM
IC50 (Cholinesterase): 2240 nM

COc1cc(CC(C(C)=O)C(=O)NCCCCCCNc2c3c(nc4ccccc24)CCCC3)ccc1O (stereo not drawn)
Activity (PC-12 [1]): Dose-dependent effect
Activity (PC-12 [2]): Dose-dependent effect
IC50 (Acetylcholinesterase): 80 nM
IC50 (Cholinesterase): 220 nM
Activity [3]: Active
Activity [4]: Active
Activity (PC-12 [5]): Non-Toxic

COc1cc(/C=C(\C(C)=O)C(=O)NCCCNc2c3c(nc4ccccc24)CCCC3)ccc1O
IC50 (Acetylcholinesterase): 1260 nM
IC50 (Cholinesterase): 1870 nM

CC(=O)CC(=O)NCCNc1c2c(nc3ccccc13)CCCC2
IC50 (Acetylcholinesterase): 460 nM
IC50 (Cholinesterase): 310 nM

CC(=O)/C(=C\c1ccc(O)cc1)C(=O)NCCCNc1c2c(nc3ccccc13)CCCC2
IC50 (Acetylcholinesterase): 9640 nM
IC50 (Cholinesterase): 1600 nM

CC(=O)CC(=O)NCCCCNc1c2c(nc3ccccc13)CCCC2
IC50 (Acetylcholinesterase): 90 nM
IC50 (Cholinesterase): 160 nM
Activity [3]: Active
Activity [4]: Active

COc1cc(CC(C(C)=O)C(=O)NCCCCNc2c3c(nc4ccccc24)CCCC3)ccc1O (stereo not drawn)
IC50 (Acetylcholinesterase): 3680 nM
IC50 (Cholinesterase): 3380 nM

CC(=O)/C(=C\c1ccc(O)cc1)C(=O)NCCCCNc1c2c(nc3ccccc13)CCCC2
IC50 (Acetylcholinesterase): 3800 nM
IC50 (Cholinesterase): 4770 nM

CC(=O)CC(=O)NCCCCCCNc1c2c(nc3ccccc13)CCCC2
IC50 (Acetylcholinesterase): 570 nM
IC50 (Cholinesterase): 220 nM

COc1cc(CC(C(C)=O)C(=O)NCCCNc2c3c(nc4ccccc24)CCCC3)ccc1O (stereo not drawn)
IC50 (Acetylcholinesterase): 5710 nM
IC50 (Cholinesterase): 1310 nM

CC(=O)C(Cc1ccc(O)cc1)C(=O)NCCCNc1c2c(nc3ccccc13)CCCC2 (stereo not drawn)
IC50 (Acetylcholinesterase): 8760 nM
IC50 (Cholinesterase): 830 nM

CC(=O)CC(=O)NCCCNc1c2c(nc3ccccc13)CCCC2
IC50 (Acetylcholinesterase): 240 nM
IC50 (Cholinesterase): 60 nM

COc1cc(/C=C/C(=O)CC(=O)/C=C/c2ccc(O)c(OC)c2)ccc1O
Activity (PC-12 [6]): Active
Activity (PC-12 [7]): Active

CC(=O)C(Cc1ccc(O)cc1)C(=O)NCCCCNc1c2c(nc3ccccc13)CCCC2 (stereo not drawn)
IC50 (Acetylcholinesterase): 1990 nM
IC50 (Cholinesterase): 390 nM

COc1cc(/C=C(\C(C)=O)C(=O)NCCCCNc2c3c(nc4ccccc24)CCCC3)ccc1O
IC50 (Acetylcholinesterase): 2100 nM
IC50 (Cholinesterase): 2110 nM

COc1cc(/C=C(\C(C)=O)C(=O)NCCCCCCNc2c3c(nc4ccccc24)CCCC3)ccc1O
IC50 (Acetylcholinesterase): 290 nM
IC50 (Cholinesterase): 1500 nM
Activity [3]: Active
Activity [4]: Active

CC(=O)C(Cc1ccc(O)cc1)C(=O)NCCCCCCNc1c2c(nc3ccccc13)CCCC2 (stereo not drawn)
IC50 (Acetylcholinesterase): 130 nM
IC50 (Cholinesterase): 200 nM
